For 14 compounds, IC50, Ki and Kd results are on record in ChEMBL document CHEMBL5528080, “Discovery of RORγ Allosteric Fluorescent Probes and Their Application: Fluorescence Polarization, Screening, and Bioimaging” (J Med Chem, 2024).

As a reminder, the IC50 is the concentration that gives 50% inhibition. Read a high IC50 as weaker potency. As a reminder, the Ki is the dissociation constant of the complex between target and ligand, obtained from inhibition or displacement. Read a low Ki as tighter binding. A word on the Kd: it is the equilibrium constant for the complex coming apart.

Holding throughout (assay): biochemical
For assay [1], the target named is T1, Nuclear receptor ROR-gamma (Homo sapiens, UniProt P51449).
T1 sequence (P51449 whole entry): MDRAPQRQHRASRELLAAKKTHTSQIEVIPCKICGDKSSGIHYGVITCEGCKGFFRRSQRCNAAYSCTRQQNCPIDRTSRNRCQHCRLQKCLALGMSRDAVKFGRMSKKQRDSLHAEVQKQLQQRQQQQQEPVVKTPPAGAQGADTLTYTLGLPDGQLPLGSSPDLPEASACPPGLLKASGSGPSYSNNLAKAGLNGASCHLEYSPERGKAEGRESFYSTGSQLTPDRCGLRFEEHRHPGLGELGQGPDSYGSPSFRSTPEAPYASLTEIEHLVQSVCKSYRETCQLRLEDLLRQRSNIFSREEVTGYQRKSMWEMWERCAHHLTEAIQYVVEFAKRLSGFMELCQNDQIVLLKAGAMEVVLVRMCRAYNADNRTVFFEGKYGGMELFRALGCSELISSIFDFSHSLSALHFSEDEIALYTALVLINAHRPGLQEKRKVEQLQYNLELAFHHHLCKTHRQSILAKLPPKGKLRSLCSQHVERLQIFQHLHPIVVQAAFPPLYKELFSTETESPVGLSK
Description: Allosteric inhibition of N-terminal his6-tagged human recombinant RORgamma LBD (261 to 518 residues) expressed in Sf9 insect cells incubated for 30 mins by fluorescence polarization assay

In assay [2] the target is T1, Nuclear receptor ROR-gamma. The source holds these as a separate data set.
Description: Allosteric inhibition of N-terminal his6-tagged human recombinant RORgamma LBD (261 to 518 residues) expressed in Sf9 insect cells assessed as inhibition constant incubated for 30 mins by fluorescence polarization assay
Assay [3] concerns the target T1, Nuclear receptor ROR-gamma. This is another data set of the same source.
Description: Binding affinity to N-terminal his6-tagged human recombinant RORgamma LBD (261 to 518 residues) expressed in Sf9 insect cells assessed as dissociation constant by SPR analysis
Assay [4] concerns the target T1, Nuclear receptor ROR-gamma. This is another data set of the same source.
Description: Binding affinity to N-terminal his6-tagged human recombinant RORgamma LBD (261 to 518 residues) expressed in Sf9 insect cells assessed as dissociation constant incubated for 30 mins by fluorescence polarization assay

A value given as a limit tells only on which side of the number the result lay.

The compound `O=C(O)c1ccc(-n2cc(C(=O)c3c(Cl)cccc3Cl)c3ccccc32)cc1` yielded a half-inhibitory concentration (IC50) in assay [1] of 0.009 µM. Further, the Ki in assay [2] worked out at 0.005 µM.
On the same counts, the results for `O=C(O)c1ccc(-n2cc(C(=O)c3c(Cl)cccc3C(F)(F)F)c3ccccc32)s1` are 1.7 µM and 0.91 µM.
As to `Cc1csc(-n2cc(C(=O)c3c(Cl)cccc3Cl)c3ccccc32)c1`, in assay [1], the IC50 is over 1000 µM.
Turning to `Cc1ccc(C(=O)c2cn(-c3ccc(C(=O)O)s3)c3ccccc23)cc1`, in assay [1], the IC50 was 79.9 µM. In addition, the affinity in assay [2], expressed as Ki, was 42.7 µM.
On the same counts, the results for `Cc1cc(-n2cc(C(=O)c3c(Cl)cccc3Cl)c3ccccc32)sc1C(=O)O` are 3.1 µM and 1.7 µM.
For `O=C(O)c1ccc(-c2nn(C(=O)c3ccccc3)c3ccccc23)cc1`, in assay [2], the Ki is 1.11 µM.
On to `Cc1cccc(C(=O)c2cn(-c3ccc(C(=O)O)s3)c3ccccc23)c1`, for which, in assay [1], the IC50 is 149 µM. In assay [2], this compound showed a Ki of 79.8 µM.
In assay [1], `O=C(O)c1ccc(-n2cc(C(=O)c3cccc(Cl)c3)c3ccccc32)s1` displayed a half-inhibitory concentration (IC50) of 28.5 µM. The compound also came in with an inhibitory constant (Ki) in assay [2] of 15.2 µM.
`O=C(O)c1ccc(-n2cc(C(=O)c3ccccc3)c3ccccc32)s1`: the IC50 in assay [1] came out at 19.3 µM. Besides, in assay [2], the Ki worked out at 102 µM.
For the compound `O=C(O)c1ccc(-c2nn(C(=O)c3c(Cl)cccc3C(F)(F)F)c3cc(C(=O)NCCOCCOCCNC(=S)Nc4ccc5c(c4)C(=O)OC54c5ccc(O)cc5Oc5cc(O)ccc54)ccc23)cc1`, the results for the Kd in assay [3] and in assay [4] were 0.28 µM and 0.0517 µM, respectively.
Consider `Cc1ccccc1C(=O)c1cn(-c2ccc(C(=O)O)s2)c2ccccc12`, for which the concentration for half-maximal inhibition (IC50) in assay [1] was found to be 33 µM. This compound yielded a Ki in assay [2] of 17.6 µM.
`O=C(O)c1ccc(-n2cc(C(=O)c3ccc(Cl)cc3)c3ccccc32)s1` yielded an IC50 in assay [1] of 39.9 µM. The compound also showed a Ki in assay [2] of 21.3 µM.
In assay [1], `O=C(O)c1ccc(-n2cc(C(=O)c3c(Cl)cccc3Cl)c3ccccc32)s1` displayed an IC50 of 0.95 µM. In assay [2], the inhibition constant (Ki) was determined as 0.51 µM.
In the case of `O=C(O)c1ccc(-n2cc(C(=O)c3ccccc3Cl)c3ccccc32)s1`, inhibition in assay [1] was half-maximal at 13.5 µM (IC50). The compound also returned a Ki in assay [2] of 7.2 µM.
